Reference: PubChem BioAssay (NCI)
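Step 1: Grow cells in 96-well plates. Step 2: Expose to compound for 48 hours at 5 concentrations. Step 3: Interpolate endpoints linearly; if unreached, use highest concentration. TGI: concentration producing complete growth inhibition.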

Legend:
Test in all cases: NCI-60 cell line screen, 48 h
786-0 renal = test system: 786-0 renal
A498 renal = test system: A498 renal
A549 NSCLC = test system: A549 NSCLC
ACHN renal = test system: ACHN renal
BT-549 breast = test system: BT-549 breast
CAKI-1 renal = test system: CAKI-1 renal
COLO 205 colon = test system: COLO 205 colon
DU-145 prostate = test system: DU-145 prostate
EKVX NSCLC = test system: EKVX NSCLC
HCT-116 colon = test system: HCT-116 colon
HCT-15 colon = test system: HCT-15 colon
HL-60(TB) leukemia = test system: HL-60(TB) leukemia
HOP-62 NSCLC = test system: HOP-62 NSCLC
HOP-92 NSCLC = test system: HOP-92 NSCLC
HS 578T breast = test system: HS 578T breast
HT29 colon = test system: HT29 colon
IGROV1 ovarian = test system: IGROV1 ovarian
K-562 leukemia = test system: K-562 leukemia
KM12 colon = test system: KM12 colon
LOX IMVI melanoma = test system: LOX IMVI melanoma
M14 melanoma = test system: M14 melanoma
MALME-3M melanoma = test system: MALME-3M melanoma
MCF7 breast = test system: MCF7 breast
MDA-MB-231 breast = test system: MDA-MB-231 breast
MDA-MB-435 = test system: MDA-MB-435
MDA-N = test system: MDA-N
MOLT-4 leukemia = test system: MOLT-4 leukemia
NCI-H226 lung = test system: NCI-H226 lung
NCI-H23 lung = test system: NCI-H23 lung
NCI-H522 lung = test system: NCI-H522 lung
NCI/ADR-RES ovarian = test system: NCI/ADR-RES ovarian
OVCAR-3 ovarian = test system: OVCAR-3 ovarian
OVCAR-4 ovarian = test system: OVCAR-4 ovarian
OVCAR-5 ovarian = test system: OVCAR-5 ovarian
OVCAR-8 ovarian = test system: OVCAR-8 ovarian
PC-3 prostate = test system: PC-3 prostate
RPMI-8226 leukemia = test system: RPMI-8226 leukemia
RXF 393 renal = test system: RXF 393 renal
SF-268 CNS = test system: SF-268 CNS
SF-295 CNS = test system: SF-295 CNS
SF-539 CNS = test system: SF-539 CNS
SK-MEL-2 melanoma = test system: SK-MEL-2 melanoma
SK-MEL-28 melanoma = test system: SK-MEL-28 melanoma
SK-MEL-5 melanoma = test system: SK-MEL-5 melanoma
SK-OV-3 ovarian = test system: SK-OV-3 ovarian
SN12C renal = test system: SN12C renal
SNB-19 CNS = test system: SNB-19 CNS
SNB-75 CNS = test system: SNB-75 CNS
SR leukemia = test system: SR leukemia
SW-620 colon = test system: SW-620 colon
T-47D breast = test system: T-47D breast
U251 CNS = test system: U251 CNS
UACC-62 melanoma = test system: UACC-62 melanoma
UO-31 renal = test system: UO-31 renal
NCI-H460 lung = test system: NCI-H460 lung
TK-10 renal = test system: TK-10 renal
UACC-257 melanoma = test system: UACC-257 melanoma

Clc1ccccc1NN(Cc1ccccn1)c1ccccc1Cl
TGI (786-0 renal): 31.6 µM | TGI (A498 renal): 34.9 µM | TGI (A549 NSCLC): 37.2 µM | TGI (ACHN renal): > 100 µM | TGI (BT-549 breast): 56 µM | TGI (CAKI-1 renal): 91.9 µM | TGI (COLO 205 colon): 31.3 µM | TGI (DU-145 prostate): > 100 µM | TGI (EKVX NSCLC): 52.5 µM | TGI (HCT-116 colon): 28.8 µM | TGI (HCT-15 colon): > 100 µM | TGI (HL-60(TB) leukemia): 44 µM | TGI (HOP-62 NSCLC): 34.3 µM | TGI (HOP-92 NSCLC): 30.5 µM | TGI (HS 578T breast): 63.9 µM | TGI (HT29 colon): 29.4 µM | TGI (IGROV1 ovarian): 42.2 µM | TGI (K-562 leukemia): 68.7 µM | TGI (KM12 colon): 32.9 µM | TGI (LOX IMVI melanoma): 32.8 µM | TGI (M14 melanoma): 38.3 µM | TGI (MALME-3M melanoma): 37.4 µM | TGI (MCF7 breast): > 100 µM | TGI (MDA-MB-231 breast): 57.4 µM | TGI (MDA-MB-435): 34.9 µM | TGI (MDA-N): 36 µM | TGI (MOLT-4 leukemia): 41.9 µM | TGI (NCI-H226 lung): 31.6 µM | TGI (NCI-H23 lung): 50.4 µM | TGI (NCI-H522 lung): 41.1 µM | TGI (NCI/ADR-RES ovarian): 47.7 µM | TGI (OVCAR-3 ovarian): 32.9 µM | TGI (OVCAR-4 ovarian): 37.2 µM | TGI (OVCAR-5 ovarian): 45.7 µM | TGI (OVCAR-8 ovarian): 39.9 µM | TGI (PC-3 prostate): > 100 µM | TGI (RPMI-8226 leukemia): 61.4 µM | TGI (RXF 393 renal): 29.2 µM | TGI (SF-268 CNS): 52.4 µM | TGI (SF-295 CNS): 71.4 µM | TGI (SF-539 CNS): 36.6 µM | TGI (SK-MEL-2 melanoma): 32.6 µM | TGI (SK-MEL-28 melanoma): 43.4 µM | TGI (SK-MEL-5 melanoma): 27.9 µM | TGI (SK-OV-3 ovarian): 94.9 µM | TGI (SN12C renal): 33.3 µM | TGI (SNB-19 CNS): 79.7 µM | TGI (SNB-75 CNS): 41.7 µM | TGI (SR leukemia): 34.1 µM | TGI (SW-620 colon): 37.7 µM | TGI (T-47D breast): > 100 µM | TGI (U251 CNS): 29.6 µM | TGI (UACC-62 melanoma): 43.8 µM | TGI (UO-31 renal): 34.8 µM

CN(C)CCCNc1cc(O)c2c(c1O)C(=O)c1ccccc1C2=O
TGI (786-0 renal): 21 µM | TGI (A498 renal): 37 µM | TGI (A549 NSCLC): 23.9 µM | TGI (ACHN renal): 27.5 µM | TGI (BT-549 breast): 34.2 µM | TGI (CAKI-1 renal): 25.7 µM | TGI (COLO 205 colon): 24.5 µM | TGI (DU-145 prostate): 28 µM | TGI (EKVX NSCLC): 31.1 µM | TGI (HCT-116 colon): 18.4 µM | TGI (HCT-15 colon): 21 µM | TGI (HOP-62 NSCLC): 23.3 µM | TGI (HOP-92 NSCLC): 29.6 µM | TGI (HS 578T breast): 50.2 µM | TGI (HT29 colon): 24 µM | TGI (IGROV1 ovarian): 24.6 µM | TGI (K-562 leukemia): 21.6 µM | TGI (KM12 colon): 21.7 µM | TGI (LOX IMVI melanoma): 24.8 µM | TGI (M14 melanoma): 19.5 µM | TGI (MALME-3M melanoma): 50.2 µM | TGI (MCF7 breast): 35.9 µM | TGI (MDA-MB-231 breast): 27.6 µM | TGI (MDA-MB-435): 29.2 µM | TGI (MDA-N): 27.4 µM | TGI (NCI-H226 lung): 35.2 µM | TGI (NCI-H23 lung): 27.9 µM | TGI (NCI-H460 lung): 19.4 µM | TGI (NCI-H522 lung): 40.7 µM | TGI (NCI/ADR-RES ovarian): 15.5 µM | TGI (OVCAR-3 ovarian): 23.5 µM | TGI (OVCAR-4 ovarian): 25.4 µM | TGI (OVCAR-5 ovarian): 33.7 µM | TGI (OVCAR-8 ovarian): 30.5 µM | TGI (PC-3 prostate): 27.5 µM | TGI (RPMI-8226 leukemia): 29.8 µM | TGI (RXF 393 renal): 17 µM | TGI (SF-268 CNS): 36.4 µM | TGI (SF-295 CNS): 25.9 µM | TGI (SF-539 CNS): 26.7 µM | TGI (SK-MEL-2 melanoma): 35.7 µM | TGI (SK-MEL-28 melanoma): 31 µM | TGI (SK-MEL-5 melanoma): 26.5 µM | TGI (SK-OV-3 ovarian): 24.8 µM | TGI (SN12C renal): 16.5 µM | TGI (SNB-19 CNS): 21.8 µM | TGI (SR leukemia): 15.9 µM | TGI (SW-620 colon): 21.7 µM | TGI (T-47D breast): 36.5 µM | TGI (TK-10 renal): 22.1 µM | TGI (U251 CNS): 27.2 µM | TGI (UACC-257 melanoma): 26.6 µM | TGI (UACC-62 melanoma): 35.3 µM | TGI (UO-31 renal): 11.9 µM
